A short description of data set [1]: Bilayer membrane permeabilization assessed as lipid to peptide ratio allowing 50% leakage of entrapped carboxyfluorescein from egg phosphatidylcholine-cholesterol liposomes at 0.49 uM at 20 mins by spectrofluorimetry. Type of data set: physicochemical.
Data set [2] can be described thus: Bilayer membrane permeabilization assessed as lipid to peptide ratio allowing 50% leakage of entrapped carboxyfluorescein from egg phosphatidylcholine-cholesterol liposomes at 0.40 uM at 20 mins by spectrofluorimetry. Conditions: 0.4 µM. The data set is classed as physicochemical.
Data set [3] has as its system Mycoplasma mycoides subsp. mycoides SC. Description: Antimicrobial activity against Mycoplasma mycoides subsp. mycoides SC KH3J after 2 hrs. The data set is classed as functional.
The test system of data set [4] is Acholeplasma laidlawii. The experiment in a line: Antimicrobial activity against Acholeplasma laidlawii PG-8A after 2 hrs. The data set is classed as functional.
Data set [5] can be described thus: Bilayer membrane permeabilization assessed as lipid to peptide ratio allowing 50% leakage of entrapped carboxyfluorescein from egg phosphatidylcholine-cholesterol liposomes at 0.13 uM at 20 mins by spectrofluorimetry. Type of data set: physicochemical.
The test system of data set [6] is Spiroplasma apis. The experiment in a line: Antimicrobial activity against Spiroplasma apis B31 after 2 hrs. The data set is classed as functional.
Data set [7] relates to Spiroplasma citri. The experiment in a line: Antimicrobial activity against Spiroplasma citri R8A2 after 2 hrs. Conditions: R8A2, 2 h. Type of data set: functional.
The test system of data set [8] is Spiroplasma floricola. Description: Antimicrobial activity against Spiroplasma floricola BNR1 after 2 hrs. The data set is classed as functional.
Data set [9] concerns Mycoplasmoides gallisepticum. The experiment in a line: Antimicrobial activity against Mycoplasma gallisepticum S6 after 2 hrs. The data set is classed as functional.
A short description of data set [10]: Bilayer membrane permeabilization assessed as lipid to peptide ratio allowing 50% leakage of entrapped carboxyfluorescein from egg phosphatidylcholine-cholesterol liposomes at 1.36 uM at 20 mins by spectrofluorimetry. The data set is classed as physicochemical.

The structures appear in SMILES notation. Values after ≈ are worked out from the molar mass of the structure shown. Square brackets hold non-standard residues; d marks the D form. Peptide text beside a SMILES is read from it. * marks the point of attachment. X2 = OC[C@H](Cc1c[nH]c2ccccc12)N*; Aib = CC(C)(N)C(=O)O

Consider `CC[C@@](C)(NC(=O)C(C)(C)NC(=O)[C@H](C)NC(=O)[C@H](CO)NC(=O)C(C)(C)NC(C)=O)C(=O)N[C@@H](CCC(N)=O)C(=O)NC(C)(C)C(=O)N[C@H](C(=O)NC(C)(C)C(=O)NCC(=O)N[C@@H](CC(C)C)C(=O)NC(C)(C)C(=O)N1CCC[C@H]1C(=O)N[C@@H](CC(C)C)C(=O)NC(C)(C)C(=O)NC(C)(C)C(=O)N[C@@H](CCC(N)=O)C(=O)N[C@H](CO)Cc1ccccc1)C(C)C`, for which the Ratio in [1] came out at 1220.
As for `CC[C@@](C)(NC(=O)C(C)(C)NC(=O)[C@@H](NC(=O)[C@@H]1CCCN1C(=O)C(C)(C)NC(=O)C(C)(C)NC(=O)CNC(=O)C(C)(C)NC(=O)C(C)(C)NC(=O)[C@H](CC(C)C)NC(=O)C(C)(C)NC(=O)[C@H](CCC(N)=O)NC(=O)C(C)(C)NC(=O)[C@H](C)NC(=O)C(C)(C)NC(=O)[C@H](C)NC(=O)C(C)(C)NC(C)=O)C(C)C)C(=O)N[C@@H](CCC(N)=O)C(=O)N[C@@H](CCC(N)=O)C(=O)N[C@H](CO)Cc1ccccc1`, the Ratio in data set [2] turned out to be 1000.
As for `CC[C@@](C)(NC(=O)C(C)(C)NC(=O)[C@@H](NC(=O)[C@@H]1CCCN1C(=O)C(C)(C)NC(=O)[C@H](CC(C)C)NC(=O)CNC(=O)C(C)(C)NC(=O)[C@@H](NC(=O)C(C)(C)NC(=O)[C@H](CCC(N)=O)NC(=O)C(C)(C)NC(=O)C(C)(C)NC(=O)[C@H](C)NC(=O)C(C)(C)NC(=O)[C@H](C)NC(=O)C(C)(C)NC(C)=O)C(C)C)C(C)C)C(=O)N[C@@H](CCC(N)=O)C(=O)N[C@@H](CCC(N)=O)C(=O)N[C@H](CO)Cc1ccccc1`, the MIC turned out to be 6.25 µM (≈ 12.3 µg/mL) in data set [3]; 0.78 µM (≈ 1.53 µg/mL) in data set [4] (Acholeplasma laidlawii, PG-8A, 2 h); 6.25 µM (≈ 12.3 µg/mL) in data set [6] (Spiroplasma apis, B31, 2 h); 3.12 µM (≈ 6.13 µg/mL) in data set [7]; 6.25 µM (≈ 12.3 µg/mL) in data set [8] (Spiroplasma floricola, BNR1, 2 h); 6.25 µM (≈ 12.3 µg/mL) in data set [9] (Mycoplasmoides gallisepticum, S6, 2 h). The MLC in [4], in data set [6], in data set [8] and in [9] was 3.12 µM (≈ 6.13 µg/mL) throughout. Also, the Ratio in data set [5] is listed as 4545.
As to `CC[C@H](C)[C@H](NC(=O)C(C)(C)NC(=O)[C@@H](NC(=O)[C@@H]1CCCN1C(=O)C(C)(C)NC(=O)[C@H](CC(C)C)NC(=O)[C@H](CO)NC(=O)C(C)(C)NC(=O)C(C)(C)NC(=O)C(C)(C)NC(=O)[C@H](CCC(N)=O)NC(=O)C(C)(C)NC(=O)C(C)(C)NC(=O)[C@H](C)NC(=O)[C@H](C)NC(=O)C(C)(C)NC(C)=O)C(C)C)C(=O)N[C@@H](CCC(N)=O)C(=O)N[C@@H](CCC(=O)O)C(=O)N[C@H](CO)Cc1c[nH]c2ccccc12` (Ac-[Aib]AA[Aib][Aib]Q[Aib][Aib][Aib]SL[Aib]PV[Aib]IQE-X2), in [10], the Ratio is reported as 295.

The values are drawn from ChEMBL document CHEMBL1155703, “Sequences and antimycoplasmic properties of longibrachins LGB II and LGB III, two novel 20-residue peptaibols from Trichoderma longibrachiatum” (J Nat Prod, 2001).
